Data from BindingDB's records for patent US20240262835 (Antengene Discovery, 2024).

The compounds below were run against Methylosome protein 50/Protein arginine N-methyltransferase 5 (Homo sapiens, UniProt O14744) (assay: PRMT5/MEP50 HotSpot Methyltransferase Assay).
Description: Table 2: The assay used recombinant full-length histone H2A as the substrate of PRMT5. Enzymatic transfer of the tritiated methyl group from S-adenosyl-L-[methyl-3H]methionine (3H-SAM) to the histone H2A protein generated a radiolabeled histone H2A by measuring in a scintillation counter to determine the activity of PRMT5 enzyme in the presence and absence of compound. The assay reactions were conducted in the presence of 100 nM MTA. Briefly, compounds were solubilized in 100% DMSO at the highest concentration of 10 mM. […] Control samples lacking compound, PRTM5/MEP50 complex or various reaction components also were prepared and processed in parallel with compound test samples. SAH was used as a positive control for assay validation. To measure PRMT5 inhibitory activity, 1 nM PRTM5/MEP50 complex was preincubated with test compound in assay buffer containing 5 μM full-length histone H2A for 15 minutes at room temperature. The enzymatic reaction was initiated by adding 1 μM 3H-SAM (final concentration) and the mixture was incubated at 30° C. for 1 hour. The reaction was stopped and transferred to filter paper for detection. The amount of tritiated H2A in each sample was determined using a scintillation counter.

Sequence of Methylosome protein 50/Protein arginine N-methyltransferase 5 (O14744 whole entry): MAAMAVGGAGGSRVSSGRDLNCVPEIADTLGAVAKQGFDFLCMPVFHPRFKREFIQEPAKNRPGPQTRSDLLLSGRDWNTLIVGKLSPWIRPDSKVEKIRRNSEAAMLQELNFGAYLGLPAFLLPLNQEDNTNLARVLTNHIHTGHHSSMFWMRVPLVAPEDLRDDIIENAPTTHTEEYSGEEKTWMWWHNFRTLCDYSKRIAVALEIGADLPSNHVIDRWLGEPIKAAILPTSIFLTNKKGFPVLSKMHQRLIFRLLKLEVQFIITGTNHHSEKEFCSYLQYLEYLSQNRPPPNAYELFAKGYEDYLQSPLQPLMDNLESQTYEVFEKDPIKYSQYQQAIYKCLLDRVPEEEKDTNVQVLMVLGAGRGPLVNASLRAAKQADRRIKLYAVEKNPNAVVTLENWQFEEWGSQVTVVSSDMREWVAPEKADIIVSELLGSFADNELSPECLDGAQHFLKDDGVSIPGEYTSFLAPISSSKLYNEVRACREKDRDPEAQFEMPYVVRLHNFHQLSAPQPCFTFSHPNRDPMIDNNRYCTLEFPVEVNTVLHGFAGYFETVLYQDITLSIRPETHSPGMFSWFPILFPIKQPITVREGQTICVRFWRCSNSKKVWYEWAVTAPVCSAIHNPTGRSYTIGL
Sequence of Methylosome protein 50/Protein arginine N-methyltransferase 5 (Q9BQA1 whole entry, further chain): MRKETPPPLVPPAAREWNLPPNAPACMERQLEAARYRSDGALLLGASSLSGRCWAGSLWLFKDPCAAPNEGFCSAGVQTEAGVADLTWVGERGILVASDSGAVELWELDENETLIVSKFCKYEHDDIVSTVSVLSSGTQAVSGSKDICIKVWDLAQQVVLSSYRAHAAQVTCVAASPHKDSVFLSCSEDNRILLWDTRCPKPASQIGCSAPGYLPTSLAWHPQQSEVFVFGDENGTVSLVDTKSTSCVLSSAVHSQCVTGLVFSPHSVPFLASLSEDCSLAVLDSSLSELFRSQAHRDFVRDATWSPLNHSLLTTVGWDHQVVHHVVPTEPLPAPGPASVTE

| IC50 [nM] | Compound |
| --- | --- |
| 8 | Cn1ncc(-c2ccc3c(c2)nc(N)c2cncn23)c1-c1c(F)cc2ccccc2c1C#N [US20240262835, Compound 1] |
| 64 | C[C@H](c1ncccn1)N(Cc1ccc(C(F)(F)F)cn1)C(=O)c1ccc2nc(N)c3cncn3c2c1 [US20240262835, Compound 3] |
| 6 | C[C@H]1CC[C@H](c2ccc3c(c2)CCC(=O)N3)N(C(=O)c2ccc3nc(N)c4cncn4c3c2)C1 [US20240262835, Compound 4] |
| 81 | C[C@H](c1ncccn1)N(Cc1ccc(C(F)(F)F)cn1)C(=O)c1ccc2nc(N)n3cncc3c2c1 [US20240262835, Compound 5] |
| 101 | C[C@H](c1ncccn1)N(Cc1ccc(C(F)(F)F)cn1)C(=O)c1cc2c(cc1F)nc(N)c1cncn12 [US20240262835, Compound 6] |
| 379 | C[C@H](c1ncccn1)N(Cc1ccc(C(F)(F)F)cn1)C(=O)c1cc2c(cn1)nc(N)c1cncn12 [US20240262835, Compound 10] |
